Here are results for 5 molecules from article PMC11597774, “Investigation of Antimicrobial and Anti-Inflammatory Efficacy of Newly Synthesized Pyrogallol-Coumarin Hybrids: In Vitro and In Silico Studies” (Pharmaceutics, 2024).

Values after ≈ are worked out from the molar mass of the structure shown. Some results are limits rather than exact numbers.

Test [1] addresses T1, Soybean lipoxygenase (Type I-B) (Glycine max, UniProt P08170).
T1 construct: purchased Merck (KGaA, Darmstadt, Germany)
T1 sequence (P08170 1-839): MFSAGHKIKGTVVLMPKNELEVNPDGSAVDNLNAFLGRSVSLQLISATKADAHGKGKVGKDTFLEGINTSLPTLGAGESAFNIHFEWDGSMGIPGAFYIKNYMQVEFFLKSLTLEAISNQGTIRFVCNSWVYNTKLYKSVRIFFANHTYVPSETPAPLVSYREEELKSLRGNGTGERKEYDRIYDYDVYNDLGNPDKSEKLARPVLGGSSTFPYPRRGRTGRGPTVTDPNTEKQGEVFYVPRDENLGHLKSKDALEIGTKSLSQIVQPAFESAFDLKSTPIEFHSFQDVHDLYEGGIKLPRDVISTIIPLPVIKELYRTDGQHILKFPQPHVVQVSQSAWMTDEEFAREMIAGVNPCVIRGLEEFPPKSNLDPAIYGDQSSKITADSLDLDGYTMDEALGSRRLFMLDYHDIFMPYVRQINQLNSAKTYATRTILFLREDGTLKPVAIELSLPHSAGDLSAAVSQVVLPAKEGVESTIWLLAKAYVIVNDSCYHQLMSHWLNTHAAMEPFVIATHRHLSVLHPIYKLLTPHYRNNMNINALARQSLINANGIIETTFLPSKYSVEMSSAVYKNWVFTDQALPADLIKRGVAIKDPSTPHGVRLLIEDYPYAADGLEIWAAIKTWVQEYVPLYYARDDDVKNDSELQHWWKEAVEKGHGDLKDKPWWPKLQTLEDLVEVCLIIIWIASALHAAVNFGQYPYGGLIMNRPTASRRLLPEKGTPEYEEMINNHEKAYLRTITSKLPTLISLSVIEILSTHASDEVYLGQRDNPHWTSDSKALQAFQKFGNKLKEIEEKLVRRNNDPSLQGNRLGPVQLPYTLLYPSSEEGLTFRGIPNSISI
In words: In vitro LOX inhibition assay. Particulars: for inhibition at 25 µM / inhibition at 50 µM / inhibition at 100 µM: read-out: Anti-LOX Activity (%); for IC50: sodium linoleate substrate, tris buffer pH 9, read-out: IC50 (µM), in vitro lipoxygenase inhibitory activity. Type of test: biochemical. The text has this:
Soybean lipoxygenase (Type I-B) is a very often used enzyme for the investigation of anti-inflammatory properties of compounds [38]. The LOX inhibition assay measures the rate of oxidation of linoleic acid by lipoxygenase, which results in the formation of a colorless product that can be detected spectrophotometrically. This enzyme catalyzes the conversion of linoleic acid into hydroperoxy fatty acids and results in increased absorbance at 234 nm. The tested compounds dissolved in DMSO were incubated at room temperature with sodium linoleate (3 mM in tris buffer pH = 9) and enzyme solution (5 × 10^3 units/mL in saline). The activity for each tested compound was presented as IC50 value ± standard deviation (SD) of three independent measurements.

Test [2] concerns C. albicans ATCC 10231. In words: Microdilution MIC/MMC with resazurin. The format is cell-based, Candida albicans. The method, then:
(§1) The antimicrobial activity of PCH-1 and PCH-2 was tested against 13 microorganisms. The experiment included four standard strains, Staphylococcus aureus ATCC 6538, Bacillus subtilis ATCC 6633, Proteus mirabilis ATCC 12453, and Pseudomonas aeruginosa ATCC 27853; five isolates, Staphylococcus aureus, Escherichia coli, Salmonella enterica, Klebsiella pneumoniae, and Bacillus subtilis; and one probiotic strain Lactobacillus plantarum 299V. Additionally, three fungal strains were tested, including one standard strain, Candida albicans ATCC 10231, and two isolates, Saccharomyces cerevisiae and probiotic strain Saccharomyces boulardii.
(§2) The bacterial suspensions were prepared using the direct colony method. The turbidity of the initial suspension was adjusted using a densitometer (DEN-1, BioSan, Latvia). When adjusted to the turbidity of the 0.5 McFarland standard, the bacterial suspension contains approximately 10^8 colony-forming units (CFU)/mL, and the yeast suspension contains approximately 10^6 CFU/mL. For the experiment, the initial suspension was further diluted at a 1:100 ratio in a sterile 0.85% saline solution.
(§3) The antimicrobial activity was assessed by determining the minimum inhibitory concentrations (MICs) and minimum microbicidal concentrations (MMCs) using the microdilution plate method with resazurin (Alfa Aesar GmbH & Co. (KG, Karlsruhe, Germany)). For this, 96-well plates were prepared by adding 100 μL of Mueller Hinton broth (Torlak, Belgrade, Serbia) for bacterial tests and Sabouraud broth (Torlak, Belgrade, Serbia) for yeast into each well. The tested PCH-1 and PCH-2 were dissolved in 10% dimethyl sulfoxide (DMSO) and then diluted into sterile distilled water. A 100 μL sample from the stock solution of the tested compound was then added to the first row of the plate, followed by twofold serial dilutions using a multichannel pipette. This produced a concentration range from 2.69 to 0.0025 µmol/L. The method is described in detail in the reported paper.
(§4) Each test setup included growth control and sterility control. […] Minimum microbicidal concentrations (MMCs) were determined as described in detail in the reported paper.
(In broth dilution the organism is exposed to a series of concentrations in liquid medium.)

Test [3] concerns S. cerevisiae. In words: Microdilution MIC/MMC with resazurin. Type of test: cell-based, Saccharomyces cerevisiae. The protocol: as §1, §2, §3, §4
Test [4] deals with S. boulardii. In words: Microdilution MIC/MMC with resazurin. The format is cell-based, Saccharomyces boulardii. The method, then:
as §1, §2, §3, §4

Test [5] has as its system L. plantarum 299V. Briefly: Microdilution MIC/MMC with resazurin. The format is cell-based, Lactobacillus plantarum. The method, then:
as §1, §2, §3, §4

For test [6], the system named is B. subtilis (isolate). Briefly: Microdilution MIC/MMC with resazurin. Type of test: cell-based, Bacillus subtilis. The method, then: as §1, §2, §3, §4
For test [7], the system named is B. subtilis ATCC 6633. In words: Microdilution MIC/MMC with resazurin. Type of test: cell-based, Bacillus subtilis. The method, then: as §1, §2, §3, §4
Test [8] deals with S. enterica. In words: Microdilution MIC/MMC with resazurin. The format is cell-based, Salmonella enterica. Particulars: S. enterica. The method, then: as §1, §2, §3, §4
Test [9] relates to E. coli. Briefly: Microdilution MIC/MMC with resazurin. Type of test: cell-based, Escherichia coli. The protocol: as §1, §2, §3, §4
The subject of test [10] is S. aureus ATCC 25923. In words: Microdilution MIC/MMC with resazurin. Type of test: cell-based, Staphylococcus aureus.
The test system of test [11] is S. aureus ATCC 25923. In words: Inhibition of biofilm formation (crystal violet). The format is cell-based, Staphylococcus aureus.
For test [12], the system named is S. aureus (isolate). Briefly: Microdilution MIC/MMC with resazurin. The format is cell-based, Staphylococcus aureus. The method, then:
as §1, §2, §3, §4

Test [13] concerns K. pneumoniae. Briefly: Microdilution MIC/MMC with resazurin. Type of test: cell-based, Klebsiella pneumoniae. The protocol:
as §1, §2, §3, §4

In test [14] the test system is P. aeruginosa ATCC 27853. Briefly: Microdilution MIC/MMC with resazurin. Type of test: cell-based, Pseudomonas aeruginosa. The method, then: as §1, §2, §3, §4
The subject of test [15] is P. aeruginosa ATCC 27853. In words: Inhibition of biofilm formation (crystal violet). The format is cell-based, Pseudomonas aeruginosa. The method, then: (§5) The ability of S. aureus ATCC 6538, P. mirabilis ATCC 12453, and P. aeruginosa ATCC 27853 to form biofilms was assayed as described by O’Toole et al. (2000), with some modifications. Briefly, tissue culture 96-well microtiter plates (Sarstedt, Germany) were prepared by dispensing 100 µL of nutrient broth (i.e., Mueller Hinton broth) into each well. Then, 10 µL of spore suspension (1.0 McFarland for Gram-positive bacteria and 0.5 McFarland for Gram-negative bacteria) was added to each row. To encourage biofilm formation, all plates were incubated at 37 °C for 48 h, after which the content of each well was emptied and washed twice with 200 µL of sterile 0.85% saline to remove non-adherent cells. The biofilms formed were fixed by adding 100 µL of methanol until it evaporated completely, then stained with 0.1% (w/v) crystal violet (Fluka AG, Buchs, Switzerland) and left at room temperature for 20 min. The excess stain was washed away with deionized water, followed by […] of 96% ethanol. The optical densities (ODs) of the stained biofilms were measured with an ELISA plate reader (RT-2100C, Rayto, Shenzhen, China) at 630 nm. Control wells containing only broth were included to verify sterility and prevent nonspecific media binding. To account for background absorbance, OD readings from sterile medium, fixative, and dye were averaged and subtracted from all test measurements. All tests were conducted in duplicate. The tissue culture 96-well microtiter plates (Sarstedt, Germany) were prepared by dispensing 100 µL of nutrient broth (i.e., Mueller Hinton broth) into each well. From the stock solutions of tested PCH-1 and PCH-2 (at a concentration of 5.4 µmol/L), 100 µL was added to the first row of the microtiter plate. Twofold serial dilutions were then performed, followed by the addition of 10 µL of bacterial suspension to each well. The turbidity of the bacterial suspension was 0.5 McFarland for Gram-negative bacteria and 1.0 McFarland for Gram-positive bacteria. The microtiter plates prepared in this way were incubated at 37 °C for 48 h. The remaining steps of the experiment were carried out as outlined below. […] Only broth or broth with tested PCH-1 and PCH-2 served as controls to check sterility and nonspecific binding of media. To compensate for background absorbance, OD readings from sterile medium, extracts, fixative, and dye were averaged and subtracted from all test values. All tests were performed in duplicate.

The subject of test [16] is P. mirabilis ATCC 12453. In words: Microdilution MIC/MMC with resazurin. Type of test: cell-based, Proteus mirabilis. The method, then:
as §1, §2, §3, §4

Test [17] concerns P. mirabilis ATCC 12453. In words: Inhibition of biofilm formation (crystal violet). The format is cell-based, Proteus mirabilis. The method, then: as §5

Regarding `NNC(=O)c1ccc(O)c(O)c1O` [H-1, 2,3,4-trihydroxybenzohydrazide], in test [1], the inhibition at 25 µM is 21.6 ± 1.4%, the inhibition at 40 µM worked out at 33.9 ± 0.8%, the inhibition at 50 µM was determined as 37.8 ± 1% and the inhibition at 75 µM amounted to 57.5 ± 1.1%. Besides, in test [1], the inhibition at 100 µM is 73.5 ± 0.6% and the IC50 is 65.4 ± 0.6 µM.

As for `CC(=O)c1c(O)c2ccccc2oc1=O` [3AcHyC, 3-acetyl-4-hydroxycoumarin], in test [1], the inhibition at 25 µM is 26.4 ± 1.3%, the inhibition at 40 µM amounted to 35.8 ± 0.8%, the inhibition at 50 µM was 43.5 ± 3.1% and the inhibition at 75 µM turned out to be 63.4 ± 0.4%. In test [1], the inhibition at 100 µM was 81.2 ± 0.2% and the IC50 is 57.9 ± 1.6 µM.

Consider `OC(Cn1cncn1)(Cn1cncn1)c1ccc(F)cc1F` [Fluconazole, fluconazole, reference compound], for which the MMC in test [2] was 0.2 mM; in test [3], 0.025 mM; in [4] it was 0.1 mM. The MIC in test [2] (Candida albicans, ATCC10231) was found to be 100 µM (≈ 30.6 µg/mL); in [3] (Saccharomyces cerevisiae), 25 µM (≈ 7.66 µg/mL); in test [4] (Saccharomyces cerevisiae), 25 µM (≈ 7.66 µg/mL).

Take `NNC(=O)c1cc(O)c(O)c(O)c1` [H-2, 3,4,5-trihydroxybenzohydrazide]: in test [1], the inhibition at 25 µM worked out at 32 ± 0.1%, the inhibition at 40 µM worked out at 44.4 ± 1.7%, the inhibition at 50 µM came to 56 ± 1.1% and the inhibition at 75 µM turned out to be 73.4 ± 0.3%. In [1], the inhibition at 100 µM was 91.9 ± 0.2% and the IC50 turned out to be 46 ± 0.9 µM.

With `CN(C)[C@@H]1C(O)=C(C(N)=O)C(=O)[C@@]2(O)C(O)=C3C(=O)c4c(O)cccc4[C@@](C)(O)[C@H]3C[C@@H]12` [Tetracycline, reference compound], the MMC in [5] is recorded as 0.001 mM; in [6] it was 0.005 mM; in [7] it was 0.035 mM; in test [8], 0.01 mM; in test [9], 0.01 mM; in [10], 0.005 mM. Moreover, the MMC in [12] is less than 0.001 mM; in test [13], 0.07 mM; in test [14], 0.14 mM; in test [16], 0.07 mM. The MIC in test [5] (Lactiplantibacillus plantarum) is less than 1 µM; in test [6] (Bacillus subtilis) it was 2 µM (≈ 0.889 µg/mL); in [7] (Bacillus subtilis, ATCC6633) it was 5 µM (≈ 2.22 µg/mL); in [9] (Escherichia coli), 5 µM (≈ 2.22 µg/mL); in [10] (Staphylococcus aureus, ATCC25923), less than 1 µM; in [12] (Staphylococcus aureus), less than 1 µM. The MIC stood at 9 µM (≈ 4 µg/mL) in [13] (Klebsiella pneumoniae); 20 µM (≈ 8.89 µg/mL) in test [14] (Pseudomonas aeruginosa, ATCC27853); 35 µM (≈ 15.6 µg/mL) in test [16] (Proteus mirabilis, ATCC12453). Besides, the BIC90 in test [11] (S. aureus ATCC 25923, 48 h) is on record as more than 2.25 mM; in test [15] (P. aeruginosa ATCC 27853, 48 h), more than 2.25 mM; in test [17] (P. mirabilis ATCC 12453, 48 h), more than 2.25 mM. Moreover, the IC50 was 560 µM in [11] (Staphylococcus aureus, ATCC25923, S. aureus ATCC 25923, 48 h, read-out: BIC50); more than 2250 µM in test [15] (Pseudomonas aeruginosa, ATCC27853, P. aeruginosa ATCC 27853, 48 h, read-out: BIC50); 1310 µM in [17] (Proteus mirabilis, ATCC12453, P. mirabilis ATCC 12453, 48 h, read-out: BIC50).

One may read the MIC as the smallest concentration in the dilution series that meets the test's criterion for growth inhibition. The low end stands for inhibition by little substance, the high end for a need for much substance.
